pIC50: −log10 of the molar value.
What follows are molecules tested on S. Typhimurium PhoP-promoter GFP reporter counterscreen, fluorescence, 4 h (assay: S. Typhimurium GFP fluorescence dose response in modified counterscreen for PhoP regulon inhibitor project (AID 1981)).

| Compound | pIC50 |
| --- | --- |
| C/C(=C\C(=O)OCCCCCCCCC(=O)O)C[C@@H]1OC[C@H](C[C@@H]2O[C@H]2[C@@H](C)[C@H](C)O)[C@@H](O)[C@H]1O | 4.85 |
| CCC(C)NC(=O)c1cn(CC)c2cc(N3CCN(C)CC3)c(F)cc2c1=O (configuration not stated) | 4.23 |
| Cc1conc1NC(c1cccs1)c1ccc2cccnc2c1O (configuration not stated) | 4.43 |
| CCCCCN=C(N)N/N=C/c1c[nH]c2ccc(OC)cc12 | 4.39 |
| COc1ccc(C(C[N+](=O)[O-])c2c(-c3ccccc3)cc3ccccn23)cc1 (configuration not stated) | 4.24 |
| CCCCCCCCCCOC(=O)Cn1c(COc2ccccc2)[n+](C)c2ccccc21 | 4.19 |
| O=C(CSc1nc2ccccc2s1)N/N=C/c1cc([N+](=O)[O-])ccc1O | 4.07 |
| CCOC(=O)N1CCN(C(=O)c2cn(CC)c3cc(N4CCN(C)CC4)c(F)cc3c2=O)CC1 | 5.07 |
| Nc1cc(Cl)c2nonc2c1[N+](=O)[O-] | 4.40 |
| C=C1c2c(Cl)ccc(O)c2C(O)=C2C(=O)[C@]3(O)C(O)=C(C(N)=O)C(=O)[C@@H](N(C)C)[C@@H]3[C@@H](O)C12 (some centres not stated) | 6.03 |
| Cc1ccnc(NC(c2cccnc2)c2ccc3cccnc3c2O)c1 (configuration not stated) | 4.12 |
| COc1c(N2CCN(C(=S)Nc3ccccc3F)C(C)C2)c(F)cc2c(=O)c(C(=O)O)cn(C3CC3)c12 (configuration not stated) | 5.64 |
| O=C(N/N=C\C=C\c1ccc([N+](=O)[O-])o1)c1cccs1 | 4.46 |
| O=C(O)CSc1cc(NS(=O)(=O)c2cccc([N+](=O)[O-])c2)c2ccccc2c1O | 4.14 |
| Oc1ccc(Cl)cc1Cc1cc(Cl)ccc1O | 4.24 |
| NC1CCN(c2nc3c(cc2F)c(=O)c(C(=O)O)cn3-c2ccc(F)cc2F)C1 (configuration not stated) | 6.28 |
| NC1CCN(c2c(F)cc3c(=O)c(C(=O)O)cn(C4CC4)c3c2Cl)C1 (configuration not stated) | > 6.64 |
| Cc1cc(SCC(=O)N/N=C/c2ccc(O)c(O)c2O)c(C)cc1Br | 4.64 |
| CN(C)c1ccc(O)c2c1CC1CC3[C@@H](N(C)C)C(=O)C(C(N)=O)=C(O)[C@]3(O)C(=O)C1=C2O (some centres not stated) | 5.81 |
| C[C@H]1c2cccc(O)c2C(O)=C2C(=O)[C@]3(O)C(O)=C(C(N)=O)C(=O)[C@@H](N(C)C)C3[C@@H](O)C21 (some centres not stated) | 5.88 |
| O=[N+]([O-])c1cc(Cl)c2cccnc2c1O | 5.71 |
| Cc1ccc(-c2c[n+](CC(=O)Nc3nc(-c4ccc(F)cc4)cs3)c3n2CCC3)cc1 | 4.14 |

| Compound | pIC50 |
| --- | --- |
| C=CCNc1ncnc2c1[nH]c1ccccc12 | 3.98 |
| CCC(C)(C)c1ccc(OCCCC[n+]2ccc(C)cc2)c(C(C)(C)CC)c1 | 4.08 |
| O=c1c(O)cccc2cc(O)c(O)c(O)c12 | 4.74 |
| COc1c(F)c(F)cc2c(=O)c(C(=O)O)cn(C3CC3)c12 | 4.18 |
| C#CCOCCOCCOCCNc1nc(N2CCN(C(=O)CCCCCCCCCCNC(=O)[C@H](CO)n3cc(CCCCCN)nn3)CC2)nc(N2CCN(C(=O)CCCCCCCCCCNC(=O)[C@H](CCCN=C(N)N)n3cc(C[C@@H](C)CC)nn3)CC2)n1 | 4.04 |
| CCCCCCCCCCOC(=O)Cn1c(COc2cccc(C)c2)[n+](C)c2ccccc21 | 4.55 |
| O=[N+]([O-])c1cc(O)c2ncccc2c1 | 4.80 |
| CO/N=C(/C(=O)N[C@@H]1C(=O)N2C(C(=O)O)=CCS[C@H]12)c1cnc(N)s1 | 4.63 |
| O=C(NC1CCCC1)c1ccc(Cl)s1 | 4.06 |
| O=[N+]([O-])c1ccc(-c2ccn[nH]2)o1 | 4.47 |
| Cc1ccc(S(=O)(=O)Nc2cc(Cl)c(O)c3ncccc23)cc1 | 4.43 |
| Oc1c(C(Nc2ccccn2)c2ccccn2)ccc2cccnc12 (configuration not stated) | 4.26 |
| O=C(N/N=C/c1c[nH]c2ccccc12)c1cc(-c2ccc3ccccc3c2)n[nH]1 | 4.16 |
| CCCCCOc1ccc(Br)cc1CSC(=N)N | 4.38 |
| NC1=NC[C@H](c2ccccc2)N1CCCCC1CCCCC1 | 4.18 |
| CCCCCCCCCCOC(=O)Cn1c(COc2ccc(OC)cc2)[n+](C)c2ccccc21 | 4.44 |
| Oc1ccc(/C=N/Nc2nccnc2Cl)c(O)c1 | 4.20 |
| CS(=O)(=O)c1ccc([C@@H](O)[C@@H](CO)NC(=O)C(Cl)Cl)cc1 | 4.20 |
| CCOc1cccc(CNc2ccc(O)cc2)c1OCc1ccc(Cl)cc1Cl | 3.90 |
| CNc1cc(Cl)c2nonc2c1[N+](=O)[O-] | 3.94 |
| CCCCCCCNC(=O)C1(CC2CC(c3ccc(Cl)cc3)=NO2)CCNCC1 (configuration not stated) | 4.32 |
| Nc1cccc2nc3ccccc3cc12 | 4.36 |

| Compound | pIC50 |
| --- | --- |
| CCCCCCCOC(=O)C[N+](C)(C)CCOC1CC2CCC1(C)C2(C)C (configuration not stated) | 4.39 |
| COc1ccc(OCC(O)CNc2ccc(Br)cc2)cc1 (configuration not stated) | 4.70 |
| Oc1cccc(Nc2nc(NCC3CCCO3)c3ccccc3n2)c1 (configuration not stated) | 3.83 |
| CCn1cc(C(=O)O)c(=O)c2cc(F)c(N3CCN(C)CC3)cc21 | 5.84 |
| CCN1CCN(C(c2ccc(C(F)(F)F)cc2)c2ccc3cccnc3c2O)CC1 (configuration not stated) | 4.34 |
| CCC(C)N1CCC2(CC1)N=c1c(c3c4c5c(C)c(O)c3c(O)c1=NC(=O)C(C)=CC=C[C@H](C)[C@H](O)[C@@H](C)[C@@H](O)[C@@H](C)[C@H](OC(C)=O)[C@H](C)[C@@H](OC)C=CO[C@@](C)(O5)C4=O)N2 (some centres not stated) | 5.52 |
| Oc1c(CN2CCN(c3ccc(F)cc3)CC2)cc(Cl)c2cccnc12 | 4.49 |
| CN1/C(=C\C=C\C2=[N+](C)c3ccc4ccccc4c3C2(C)C)C(C)(C)c2ccccc21 | 4.85 |
| COc1nsnc1NS(=O)(=O)c1ccc(NC(=S)NC(=O)c2cccnc2)cc1 | 4.46 |
| C[C@H]1c2cccc(O)c2C(O)=C2C(=O)[C@]3(O)C(O)=C(C(N)=O)C(=O)[C@@H](N(C)C)[C@@H]3[C@@H](O)[C@@H]21 | 5.81 |
| COc1ccc(C(C[N+](=O)[O-])n2nc(C)cc2C)cc1 (configuration not stated) | 4.67 |
| O=c1[nH]c2ccccc2n2c(=S)[nH]nc12 | 4.54 |
| CCCCCCCCCC[N+](C)(C)CC/C=C1/c2ccccc2Sc2ccc(Cl)cc21 | 4.40 |
| Oc1ccccc1NCC(O)Cn1ccc2ccccc21 (configuration not stated) | 3.89 |
| CCn1cc(C(=O)NCCCN(C)C)c(=O)c2cc(F)c(N3CCN(C)CC3)cc21 | 4.19 |
| CCCCCCCCCn1c2c(c(=N)c3c1CCC3)CCC2 | 4.07 |
| Oc1c(Cl)cc(Cl)c2cccnc12 | 4.75 |
| CCCCNC(=O)c1cn(CC)c2cc(N3CCN(C)CC3)c(F)cc2c1=O | 4.20 |
| COc1cccc(/C=N/Nc2ncc(C(F)(F)F)cc2Cl)c1O | 4.46 |
| Cc1ccc(S(=O)(=O)/N=C2/C=C(Sc3ncn[nH]3)C(=O)c3ccccc32)c(C)c1 | 4.25 |
| S=c1nc(C2CCCCC2)[nH][nH]1 | 3.87 |
| CO[C@H]1/C=C/O[C@@]2(C)Oc3c(C)c(O)c4c(O)c(c(C=NN5CCN(C)CC5)c(O)c4c3C2=O)NC(=O)/C(C)=C\C=C\[C@H](C)[C@H](O)[C@@H](C)[C@@H](O)[C@@H](C)[C@H](OC(C)=O)[C@@H]1C | 4.99 |

| Compound | pIC50 |
| --- | --- |
| Cc1cc(C(=O)N/N=C/c2ccc([N+](=O)[O-])s2)n[nH]1 | 4.44 |
| CCOC(=O)c1ccc(-c2ccc(C3Nc4ccccc4C(=O)N3O)o2)cc1 (configuration not stated) | 3.95 |
| O=Nc1ccc(O)c2ncccc12 | 4.38 |
| CC1CCc2cc(F)cc3c(=O)c(C(=O)O)cn1c23 (configuration not stated) | 4.87 |
| Oc1ccc(NCc2ccccc2OCc2ccccc2F)cc1 | 4.10 |
| CCCCCCCNC(=O)C1(CC2CC(c3cccc(Br)c3)=NO2)CCNCC1 (configuration not stated) | 4.23 |
| Nc1ccc(Nc2ccccc2)cc1 | 4.04 |
| C[C@H]1c2cccc(O)c2C(O)=C2C(=O)C3(O)C(O)=C(C(N)=O)C(=O)[C@@H](N(C)C)[C@@H]3[C@@H](O)[C@@H]21 (some centres not stated) | 5.74 |
| Cc1cc(/C=N/n2c(COc3ccccc3)nc3ccccc3c2=O)c(O)c([N+](=O)[O-])c1 | 4.21 |
| O=C(Nc1ccccc1)Nc1ncc([N+](=O)[O-])s1 | 4.27 |
| CCn1cc(C(=O)NCCN(C)C)c(=O)c2cc(F)c(N3CCN(C)CC3)cc21 | 3.91 |
| CN(C)S(=O)(=O)c1cccc(NC(=S)N/N=C/c2cc(Br)ccc2O)c1 | 4.26 |
| CC(=O)Oc1cc2cccc(OC(C)=O)c(=O)c2c(OC(C)=O)c1OC(C)=O | 4.75 |
| O=CN/N=C/c1c(O)ccc2ccccc12 | 4.23 |
| Oc1c(I)cc(Cl)c2cccnc12 | 4.15 |
| CCCC(=O)NC(c1cccs1)c1cc([N+](=O)[O-])c2cccnc2c1O (configuration not stated) | 4.52 |
| O=C1C=C(N2CCOCC2)c2ccccc2C1=O | 4.16 |
| O=C1OC(/C(=C\Nc2ccc(F)cc2F)[N+](=O)[O-])c2ccccc21 (configuration not stated) | 4.74 |
| Nc1nc(N)c(Cc2ccc(Cl)cc2Cl)c(N)n1 | 3.83 |
| Oc1ccc(CN2CCc3ccccc3C2)c2cccnc12 | 4.52 |
| Fc1ccc(Nc2nc(NCc3ccco3)c3ccccc3n2)cc1 | 4.49 |
| O=C1NN(c2ccccc2)C(=O)/C1=C\c1coc2ccc(O)cc2c1=O | 4.09 |

| Compound | pIC50 |
| --- | --- |
| O=C(Oc1ccc[nH]c1=O)c1cc([N+](=O)[O-])cc([N+](=O)[O-])c1 | 4.10 |
| CC(=O)NC(c1ccc2ccccc2c1)c1ccc2cccnc2c1O (configuration not stated) | 4.34 |
| CCCCCOc1ccc(CSC(=N)N)cc1[N+](=O)[O-] | 4.06 |
| C=CC#CC[N+]1(CC#Cc2ccccc2)CCOCC1 | 4.52 |
| O=C(N[C@H](CO)[C@H](O)c1ccc([N+](=O)[O-])cc1)C(Cl)Cl | 5.07 |
| COC1C(OC(=O)c2ccc(C)[nH]2)C(O)C(Oc2ccc3c(O)c(NC(=O)c4ccc(O)c(CC=C(C)C)c4)c(=O)oc3c2Cl)OC1(C)C (configuration not stated) | 4.71 |
| CC(=O)NC(c1ccc(Cl)cc1Cl)c1ccc2cccnc2c1O (configuration not stated) | 4.40 |
| O=c1cc2oc3cc(O)c(O)cc3c(-c3ccccc3[N+](=O)[O-])c-2cc1O | 4.25 |
| CNC[C@H](Cc1ccccc1)NC[C@@H](Cc1cccc2ccccc12)NCCc1ccc(C)cc1 | 4.52 |
| Oc1ccc(N2CCN(Cc3ccc(OCCCN4CCCCC4)cc3)CC2)cc1 | 3.96 |
| O=C(N/N=C/c1cc([N+](=O)[O-])ccc1O)C1CC1 | 4.34 |
| CCCC(=O)NC(c1ccc(Cl)cc1)c1ccc2cccnc2c1O (configuration not stated) | 4.21 |
| CCCCOc1ccc(Br)cc1CSC(=N)N | 4.01 |
| Oc1ccc(CNc2ccccc2F)c2cccnc12 | 4.12 |
| CCn1cc(C(=O)O)c(=O)c2cc3c(cc21)OCO3 | 4.17 |
| O=C(NC(=S)NNC(=O)c1ccccc1O)c1ccco1 | 4.38 |
| CCN(CC(=O)NC(C)(C)C)C(=O)COc1c(Cl)cc(Cl)c2ccc(C)nc12 | 3.87 |
| COc1cccc(N(C(=O)c2ccco2)c2nc(-c3sc(NC(=O)c4ccco4)nc3C)cs2)c1 | 3.90 |
| CCCCCCCCCCOC(=O)Cn1c(COc2ccc(C)cc2)[n+](C)c2ccccc21 | 4.59 |

Source: PubChem BioAssay AID1981 (Southern Research Specialized Biocontainment Screening …, 2009)
